Measurements: patent US12590106B2, “Spiromacrocyclic orexin 2 receptor agonists” (H. Lundbeck A/S, priority 2023, dated 2026)
pEC50: −log10 of the molar value. Like-named read-outs stand apart in the source and are kept apart here.

Target: T1, human Ox2R (Homo sapiens, UniProt O43614)
T1 construct: The gene encoding hOx2R was subcloned into the expression plasmid pcDNA5/FRT/TO; expressed in transfected cells; host or cells: CHO Flp-In cells (pcDNA5/FRT/TO with pOG44 Flp recombinase vector, hygromycin B selection)
T1 sequence (O43614 1-444): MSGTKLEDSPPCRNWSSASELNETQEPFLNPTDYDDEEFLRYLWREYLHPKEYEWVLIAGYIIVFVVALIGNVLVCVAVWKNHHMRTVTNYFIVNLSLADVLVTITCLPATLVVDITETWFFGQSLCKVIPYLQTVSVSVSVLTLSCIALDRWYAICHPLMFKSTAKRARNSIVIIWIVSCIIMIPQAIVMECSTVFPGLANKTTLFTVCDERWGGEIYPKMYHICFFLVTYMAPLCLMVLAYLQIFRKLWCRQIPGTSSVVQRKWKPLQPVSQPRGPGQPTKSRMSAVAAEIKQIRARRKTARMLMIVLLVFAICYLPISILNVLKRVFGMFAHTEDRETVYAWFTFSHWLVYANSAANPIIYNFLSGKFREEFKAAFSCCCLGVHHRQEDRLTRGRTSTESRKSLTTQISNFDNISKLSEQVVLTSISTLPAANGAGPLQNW
Assay: Measurement of OX2R agonist activity (cell-based calcium release assay)
Details: for pEC50: read-out: EC50
From the text: Measurement of OX2R Agonist Activity
The Ox2R has a broad signaling profile and couple to a range of different Gα-proteins. The cell-based calcium release assay is primarily assessing signaling through the Gαq signaling pathway, which promotes calcium mobilization via inositol triphosphate production upon activation of Ox2R.
A CHO Flp-In cell-line stably expressing the human Ox2R (hOx2R-CHO Flp-In) was established as follows: The gene encoding hOx2R was subcloned into the expression plasmid pcDNA5/FRT/TO and then transfected into CHO Flp-In cells together with the Flp recombinase vector, pOG44. Cells were cultured in growth medium: Ham's F12 (Gibco), 10% fetal bovine serum (Gibco) and 100 U/mL penicillin-streptomycin (Gibco) supplemented with hygromycin B (Thermo Fisher Scientific) as selection marker at 37° C. in the presence of 5% CO2.
To prepare the hOx2R-CHO FlpIn cells for calcium release assay, the cells were suspended in growth medium and seeded in black, clear-bottomed 384-well plates (Corning) at 10,000 cells/well. The plated cells were grown overnight at 37° C. and 5% CO2. The following day, the media was removed, and the cells were incubated with assay buffer (HBSS with 20 mM HEPES, pH 7.4) containing 2.5 mM probenecid (Thermo Fisher Scientific), 10 mM CaCl2, 0.1% pluronic F68 (Gibco) and 1× calcium-4 dye (Molecular Devices) for 1 h at 37° C. and 5% CO2. After incubation, cells were allowed to equilibrate at room temperature for 15 minutes and then loaded into FDSS7000Ex system (Hamamatsu Photonics) together with a plate containing test compounds serially diluted in assay buffer. Cells were stimulated with test compounds (online injection) and the agonist activity was determined as an increase in intracellular calcium concentration measured from the ratio of fluorescence emission at 542 nm by excitation at 480 nm. The agonist response for each applied concentration was assessed as the ratio: maximum fluorescence/average pre-stimulated fluorescence and was normalized to responses from assay buffer alone (0% response) and 10 μM Danavorexton (100% response). EC50 and Emax values were calculated from concentration-response curves by using Genedata Screener software.

[1] = hOx2R-CHO Flp-In cells, intracellular calcium, n≥2 tests
[2] = hOx2R-CHO Flp-In cells, normalized to assay buffer (0%) and 10 μM Danavorexton (100%), n≥2 tests, read-out: Emax (%)

CS(=O)(=O)NC1CCC2(C1)c1nc(co1)COc1c(F)cccc1-c1cc(ccc1F)C2F (single isomer, unassigned) [Example 77, N-[(1′S,14R,15S or 15R)-6,15,19-trifluorospiro[8,12-dioxa-21-azatetracyclo[14.3.1.110,13.02,7]henicosa-1(19),2,4,6,10,13(21),16(20),17-octaene-14,3′-cyclopentane]-1′-yl]methanesulfonamide]
pEC50 [1]: 8.85
Emax [2]: 99%

CS(=O)(=O)NC1CCC2(C1)c1nc(co1)COc1c(F)cccc1-c1cc(ccc1F)C2F (single isomer, unassigned) [Example 78, N-[(1′S,14R,15S or 15R)-6,15,19-trifluorospiro[8,12-dioxa-21-azatetracyclo[14.3.1.110,13.02,7]henicosa-1(19),2,4,6,10,13(21),16(20),17-octaene-14,3′-cyclopentane]-1′-yl]methanesulfonamide]
pEC50 [1]: 9.77
Emax (%) (hOx2R-CHO Flp-In cells, normalized to assay buffer (0%) and 10 μM Danavorexton (100%), n≥2 tests): 95%

CC1Oc2ccccc2-c2cccc(c2)C[C@@]2(CC[C@H](NS(C)(=O)=O)C2)c2nccc1n2 (single isomer, unassigned) [Example 88, N-[(1′S,9R*,15R)-9-methylspiro[8-oxa-13,22-diazatetracyclo[15.3.1.110,14.02,7]docosa-1(21),2,4,6,10,12,14(22),17,19-nonaene-15,3′-cyclopentane]-1′-yl]methanesulfonamide]
pEC50 [1]: 5.80
Emax [2]: 88%

C[C@@H]1Oc2ccccc2-c2cccc(c2)C[C@@]2(CC[C@H](NS(C)(=O)=O)C2)c2nccc1n2 (single isomer, unassigned) [Example 89, N-[(1′S,9S*,15R)-9-methylspiro[8-oxa-13,22-diazatetracyclo[15.3.1.110,14.02,7]docosa-1(21),2,4,6,10,12,14(22),17,19-nonaene-15,3′-cyclopentane]-1′-yl]methanesulfonamide]
pEC50 [1]: 8.43
Emax [2]: 110%

C[C@H]1C[C@H](NS(C)(=O)=O)C[C@]12Cc1ccc(F)c(c1)-c1cccc(F)c1OCc1ccnc2n1 (single isomer, unassigned) [Example 94, N-[(1′S,4′S,15R)-6,20-difluoro-4′-methyl-spiro[8-oxa-13,22-diazatetracyclo[15.3.1.110,14.02,7]docosa-1(20),2,4,6,10,12,14(22),17(21),18-nonaene-15,3′-cyclopentane]-1′-yl]methanesulfonamide or N-[(1′R,4′R,15S)-6,20-difluoro-4′-methyl-spiro[8-oxa-13,22-diazatetracyclo[15.3.1.110,14.02,7]docosa-1(20),2,4,6,10,12,14(22),17(21),18-nonaene-15,3′-cyclopentane]-1′-yl]methanesulfonamide]
Emax: 94%
EC50 (EC50 (nM), hOx2R-CHO Flp-In cells, intracellular calcium, n≥2 tests): 6.7 nM

CS(=O)(=O)N[C@H]1CC[C@@]2(CO[C@H]3CC[C@H](CC3)c3nccc(n3)OCc3coc2n3)C1 [Example 1, N-[(1s,1′S,13S,16s)-spiro[7,11,15-trioxa-3,21,22-triazatetracyclo[14.2.2.12,6.19,12]docosa-2,4,6(22),9,12(21)-pentaene-13,3′-cyclopentane]-1′-yl]methanesulfonamide]
pEC50 [1]: 8.01
Emax [2]: 98%

CS(=O)(=O)N[C@H]1CC[C@@]2(CO[C@H]3CC[C@H](CC3)c3ccccc3OCc3coc2n3)C1 [Example 2, N-[(1s,1′S,14R,17s)-spiro[8,12,16-trioxa-22-azatetracyclo[15.2.2.110,13.02,7]docosa-2,4,6,10,13(22)-pentaene-14,3′-cyclopentane]-1′-yl]methanesulfonamide]
pEC50 [1]: 9.37
Emax [2]: 99%

C[C@@H]1Oc2c(F)cccc2-c2cc(ccc2F)C[C@@]2(CC[C@H](NS(C)(=O)=O)C2)c2nc1co2 [Example 3, N-[(1′S,9S,14R)-6,19-difluoro-9-methyl-spiro[8,12-dioxa-21-azatetracyclo[14.3.1.110,13.02,7]henicosa-1(19),2(7),3,5,10,13(21),16(20),17-octaene-14,3′-cyclopentane]-1′-yl]methanesulfonamide]
pEC50 [1]: 9.01
Emax [2]: 99%

CS(=O)(=O)N[C@H]1CC[C@@]2(Cc3cccc(c3)-c3cccc(n3)OCCc3coc2n3)C1 [Example 4, N-[(1′S,8R)-spiro[10,15-dioxa-20,21-diazatetracyclo[14.3.1.12,6.19,12]docosa-1(19),2(22),3,5,9(21),11,16(20),17-octaene-8,3′-cyclopentane]-1′-yl]methanesulfonamide]
pEC50 [1]: 6.48
Emax [2]: 100%

[2H]C1([2H])Oc2ccccc2-c2cc(ccc2F)C[C@@]2(CC[C@H](NS(C)(=O)=O)C2)c2nc1co2 [Example 5, N-[(1′S,14R)-9,9-dideuterio-19-fluoro-spiro[8,12-dioxa-21-azatetracyclo[14.3.1.110,13.02,7]henicosa-1(19),2,4,6,10,13(21),16(20),17-octaene-14,3′-cyclopentane]-1′-yl]methanesulfonamide]
pEC50 [1]: 9.44
Emax [2]: 100%

[2H]C1([2H])Oc2c(F)cccc2-c2cc(ccc2F)C[C@@]2(CC[C@H](NS(C)(=O)=O)C2)c2nc1co2 [Example 6, N-[(1′S,14R)-9,9-dideuterio-6,19-difluoro-spiro[8,12-dioxa-21-azatetracyclo[14.3.1.110,13.02,7]henicosa-1(19),2,4,6,10,13(21),16(20),17-octaene-14,3′-cyclopentane]-1′-yl]methanesulfonamide]
pEC50 [1]: 9.96
Emax [2]: 100%

CS(=O)(=O)N[C@H]1CC[C@@]2(Cc3ccc(F)c(c3)-c3cccc(F)c3OCC3=CN=C2O3)C1 [Example 7, N-[(1′S,14R)-6,19-difluorospiro[8,21-dioxa-12-azatetracyclo[14.3.1.110,13.02,7]henicosa-1(19),2,4,6,10,12,16(20),17-octaene-14,3′-cyclopentane]-1′-yl]methanesulfonamide]
pEC50 [1]: 7.68
Emax [2]: 99%

CS(=O)(=O)N[C@H]1CC[C@@]2(Cc3cccc(c3)-c3cccnc3OCc3coc2n3)C1 [Example 9, N-[(1′S,14R)-spiro[8,12-dioxa-6,21-diazatetracyclo[14.3.1.110,13.02,7]henicosa-1(20),2,4,6,10,13(21),16,18-octaene-14,3′-cyclopentane]-1′-yl]methanesulfonamide]
pEC50 [1]: 8.00
Emax [2]: 98%

CS(=O)(=O)N[C@H]1CC[C@@]2(Cc3cc(ccc3F)-c3ccccc3OCc3coc2n3)C1 [Example 10, N-[(1′S,14R)-17-fluorospiro[8,12-dioxa-21-azatetracyclo[14.3.1.110,13.02,7]henicosa-1(19),2,4,6,10,13(21),16(20),17-octaene-14,3′-cyclopentane]-1′-yl]methanesulfonamide]
pEC50 [1]: 8.82
Emax [2]: 100%

CCS(=O)(=O)N[C@H]1CC[C@@]2(Cc3ccc(F)c(c3)-c3ccccc3OCc3coc2n3)C1 [Example 11, N-[(1′S,14R)-19-fluorospiro[8,12-dioxa-21-azatetracyclo[14.3.1.110,13.02,7]henicosa-1(19),2,4,6,10,13(21),16(20),17-octaene-14,3′-cyclopentane]-1′-yl]ethanesulfonamide]
pEC50 [1]: 9.17
Emax [2]: 97%

CNS(=O)(=O)N[C@H]1CC[C@@]2(Cc3ccc(F)c(c3)-c3ccccc3OCc3coc2n3)C1 [Example 12, (1′S,14R)-19-fluoro-N-(methylsulfamoyl)spiro[8,12-dioxa-21-azatetracyclo[14.3.1.110,13.02,7]henicosa-1(19),2,4,6,10,13(21),16(20),17-octaene-14,3′-cyclopentane]-1′-amine]
pEC50 [1]: 9.72
Emax [2]: 100%
